Entries after “also recorded” stand apart in the source; their conditions may differ. Marks after values point to notes of the source that are not given here.
Experiments:
[1] = test system: DOHH2 human tumor xenografts; conditions: for Median Survival Time: CAS024 10 μg IV days 0, 4, 8, Bendamustine 10 mg/kg IP days 0, 2, 4, 7, 9, alone or combined; for clinical signs of toxicity: CAS024 10 μg IV, Bendamustine 10 mg/kg IP
Protocol: Establishment of tumor xenografts and sorting into treatment groups. […] The tumor-bearing mice were sorted into five groups with equivalent mean tumor volumes (n=15 per group; 3 cages of 5 mice for each group).
In vivo treatment. Groups of mice were treated with an injection of 0.2 mL of PBS containing 10 μg huIgG (days 0, 4, 8 IV), 10 μg CAS024 (days 0, 4, 8 IV), 10 mg/kg Bendamustine (0, 2, 4, 7, 9 IP), or 10 μg CAS024 (days 0, 4, 8 IV) AND 10 mg/kg Bendamustine (0, 2, 4, 7, 9 IP).
Monitoring and endpoints. Mice were monitored daily by visual inspection. […] Tumor volumes were calculated as described above.

[2] = SMIP expression in transfected HEK293 cells, day 7 supernatants titered with Protein A sensor; conditions: supernatants day 7
Excerpt: CAS-024 and other CD37-specific binding SMIP molecules were produced by recombinant DNA technology and transfected into HEK293 cells for 7 days. Cell culture supernatants were harvested on day 7 and titered using Octec Q Protein A sensor.

CD37 on BJAB cells = target: T1, CD37 on BJAB cells (Homo sapiens, UniProt P11049); experiment: Competitive binding / cross blocking of FITC-conjugated anti-CD37 reagents on BJAB cells; conditions: unlabeled blocking reagent
T1 construct: endogenous in cells; host or cells: BJAB cells
T1 sequence (P11049 1-281): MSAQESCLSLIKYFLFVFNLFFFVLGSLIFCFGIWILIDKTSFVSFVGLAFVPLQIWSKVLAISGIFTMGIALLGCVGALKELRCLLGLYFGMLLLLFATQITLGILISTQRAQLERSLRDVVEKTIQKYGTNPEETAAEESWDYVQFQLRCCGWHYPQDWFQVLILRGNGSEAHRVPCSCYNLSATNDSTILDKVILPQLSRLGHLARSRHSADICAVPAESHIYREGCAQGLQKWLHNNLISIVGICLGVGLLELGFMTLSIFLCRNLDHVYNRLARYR
Protocol: FITC labeled antibody conjugates were titrated from 10 ng/mL to 10 μg/mL in an initial binding study to determine the optimal amount to use in the blocking studies. The level chosen was just below saturating amounts, and was kept constant in the subsequent assays, while levels of blocking antibody were increased over a 10-fold range. Data were plotted as percent of maximal binding versus concentration of blocking antibody, so that higher levels indicate less efficient blocking, while lower levels indicate more efficient blocking activity.
For competitive binding assays, 2.5×10^5 BJAB cells were incubated in 96-well V-bottom plates in staining media (PBS with 2% mouse sera) with the FITC-conjugated anti-CD37 mAbs at 1.25 μg/mL in the presence of unconjugated anti-CD37 MAb at the indicated concentrations (2.5, 1.25, 0.6, or 0.3 μg/ml) or staining media for 45 minutes on ice in the dark. Blocking antibodies and FITC labeled antibody conjugates were added to reactions prior to addition of cells. The cells were then washed […] with PBS and fixed with 1% paraformaldehyde (USB, Cleveland, Ohio). The treated cells were analyzed by flow cytometry using a FACsCalibur instrument and CellQuest software (BD Biosciences, San Jose, Calif.). […]

CD37 on Ramos cells = target: T2, CD37 on Ramos cells (Homo sapiens, UniProt P11049); experiment: FMAT competition assay against FMAT Blue labeled CAS-006 for binding to Ramos cells
T2 construct: endogenous in cells; host or cells: Ramos cells
T2 sequence (P11049 1-281): T1 sequence (P11049 1-281)
Excerpt: A competition assay was used to compare the binding affinity of different anti-CD37 specific small modular immunopharmaceutical (SMIP) molecules to CD-37 found on Ramos cells (a B-lymphoblastoid cell line derived from a Burkitt lymphoma). An SEC purified chimeric anti-CD37 SMIP molecule (CAS-006, SEQ ID NO:247) was labeled with the FMAT Blue® fluorescence dye (Applied Biosystems) and used as the standard to compete with purified unlabeled chimeric anti-CD37 SMIP molecule (positive control) and purified unlabeled humanized anti-CD37 SMIP test molecules. […] The plates were incubated at room temperature for 30 min and read on an 8200 Cellular Detection System (Applied Biosystems) gated for middle cell size and low signal.
A competition assay as described in Example 4 was used to compare the binding affinity of different mouse-human hybrid anti-CD37 SMIP molecules compared to CAS-024 binding to Ramos cells. An SEC purified chimeric anti-CD37 SMIP molecule (CAS-006, SEQ ID NO:247) was labeled with the FMAT Blue® fluorescence dye (Applied Biosystems) and used as the standard to compete with purified unlabeled chimeric anti-CD37 SMIP molecule (CAS-006, positive control) and purified unlabeled humanized anti-CD37 SMIP test molecules—CAS-002 (SEQ ID NO:48), CAS-003 (SEQ ID NO:52), CAS-014 (SEQ ID NO:251), CAS-017 (SEQ ID NO:252), and CAS-024 (SEQ ID NO:253).

[3] = test system: human tumor (DOHH2) xenograft; experiment: Single agent efficacy in established DOHH2 xenograft model in SCID mice; format: in vivo; conditions: for Death (other than for Tumor Size Sacrifice) / Median Survival Time: 200 μg IP days 0, 4, 8, cumulative 600 μg; for mean tumor volume compared with human IgG treated group: day 4 through day 11
Protocol: Mice were monitored daily by visual inspection. […] Tumor volumes were calculated as described above. Tumor volumes on the last day that all mice were alive in each group were also expressed in terms of tumor volumes relative to day 0, using the formula: Relative tumor volume on day of interest=(volume on day of interest−volume on day 0)volume on day 0

[4] = SMIP expression in transfected CHO cells, supernatants titered with Protein A sensor; parameters: species or system Chinese Hamster Ovary (CHO); conditions: shake flasks, culture supernatants
Protocol: CAS-024 and other CD37-specific binding SMIP molecules were cloned into a Chinese Hamster Ovary (CHO) mammalian cell expression system. Transfected CHO cells that produced the SMIP molecules were cultured in shake flasks and harvested cell culture supernatants were titered using Octec Q Protein A sensor.

[5] = test system: human tumor (DOHH2) xenograft; experiment: Dose response in established subcutaneous DOHH2 xenograft model in SCID mice; format: in vivo
Protocol: Mice were monitored daily by visual inspection. […] Tumor volumes were calculated as described above.

[6] = 3 μg IP days 0, 4, 8, cumulative 9 μg
[7] = 10 μg IP days 0, 4, 8, cumulative 30 μg
[8] = 30 μg IP days 0, 4, 8, cumulative 90 μg
[9] = 100 μg IP days 0, 4, 8, cumulative 300 μg

## Cn1c(CCCC(=O)O)nc2cc(N(CCCl)CCCl)ccc21 [Bendamustine, 4-[5-[Bis(2-chloroethyl)amino]-1-methylbenzimidazol-2-yl]butanoic acid, reference compound]
[1]
  Median Survival Time: 17 days
  clinical signs of toxicity: scruffy coats and diarrhea

## CAS-006: chimeric anti-CD37 SMIP protein (mVLmVH) with variable regions from mouse mAb G28-1, SEQ ID NO:247
[2]
  Protein Titer: 9.3 µg/mL
CD37 on BJAB cells
  blocking activity (inhibition of binding of FITC-conjugated anti-CD37): highest level of blocking activity

## G28-1 VH (M99F, Y102S)-VL (T25A) scFv (SSC-P) H WCH2 WCH3 [CAS-024]
[2]
  Protein Titer: 12.7 µg/mL
CD37 on Ramos cells; Ramos cells
  greater affinity for CD37 than humanized VLVH SMIP molecules with 16 amino acid linker: ≤ 4 fold
CD37 on Ramos cells; competition with labeled CAS-006, Ramos cells
  affinity for CD37 compared with parent chimeric CAS-006: substantially the same affinity; also recorded: same binding affinity
[1]
  Median Survival Time: 17^b Days
  clinical signs of toxicity: No clinical signs of toxicity
[3]
  Death (other than for Tumor Size Sacrifice): 1/15^f
  Median Survival Time: Undefined^d, e
  mean tumor volume compared with human IgG treated group: significantly lower
[4]
  Protein Titer Range: 500 to 650 µg/mL
[5]; [6]
  Death (Not Due to Large Tumor Volume): 0/14
  Median Survival Time: 19 days
[5]; [7]
  Death (Not Due to Large Tumor Volume): 0/14
  Median Survival Time: 28 days
[5]; [8]
  Death (Not Due to Large Tumor Volume): 0/14
  Median Survival Time: 35 days
[5]; [9]
  Death (Not Due to Large Tumor Volume): 1/14^h
  Median Survival Time: Undefined
[5]; 200 μg IP days 0, 4, 8, cumulative 600 μg
  Death (Not Due to Large Tumor Volume): 0/14
[5]; 3 to 200 μg IP days 0, 4, 8
  effect on the growth of DOHH2 tumors: dose-dependent inhibitory effect

## Rituxan: anti-CD20 treatment used as single agent comparator [reference compound]
[3]
  Death (other than for Tumor Size Sacrifice): 0/15
  Median Survival Time: 43 days
  mean tumor volume compared with human IgG treated group: significantly lower

— patent publication US8333966B2, “CD37 immunotherapeutics and uses thereof” (Emergent Product Development Seattle, LLC, priority 2008, dated 2012)
